Measured values reported in BigSolDB 2.1.

CC1=NN(c2ccccc2)C(=O)C1
solubility (mole fraction)
Conditions	in 2,4-dimethylphenol	in DMSO	in NMP	in diglyme	in morpholine-4-carbaldehyde	in tetraglyme	in triglyme
298.15 K	0.0188	0.0758	0.0383	0.0205	0.0111	0.0463	0.0153
303.15 K	0.0282	0.122	0.0496	0.0269	0.0146	0.0863	0.022
308.15 K	0.0408	0.201	0.0694	0.0333	0.0176	0.131	0.0311
313.15 K	0.0565	0.298	0.0861	0.0416	0.0217	0.212	0.0457
